We go through one compound from article PMC4601023, “Novel anticancer agent, SQAP, binds to focal adhesion kinase and modulates its activity” (Scientific Reports, 2015).

The structures appear in SMILES notation.

The test system of data set [1] is A549 cells. Nature of the data set: In vitro cell migration assay (Oris kit), A549. The class given is cell-based, human. The settings on record: A549, 96 well cell migration kit. On the procedure:
Figure 6 SQAP inhibits cell migration in vitro. (A) HUVEC cells were seeded and grown to 100% confluence in 60-mm diameter dishes. After generating a single scratch in the monolayer, the cells were cultured for 11 h in medium containing 1% FBS and VEGF (50 ng/mL) in the presence or absence of SQAP. Photographs were taken immediately after 11 h. (B) The change in wound width was measured as described in the Materials and Methods. (C) A549 cells were seeded and grown to 100% confluence in 60-mm diameter dishes. After generating a single scratch in the monolayer, the cells cultured for the 25 h in media containing 1% FBS and fibronectin (10 μg/ml) treated with SQAP or vehicle. Photographs were collected immediately after wounding and after 25 h. (D) The change in wound width was measured as described in the Materials and Methods. Cell migration was additionally examined in 96 well plates. HUVEC (E) and A549 cells (F) were seeded and grown into confluence overnight. […] The fluorescent emission signal was obtained with a plate reader. […]
Wound healing was additionally assessed in HUVEC or A549 cells using a cell migration kit (Oris, Madison, WI, USA) as described by the manufacturer. […] The fluorescence emission signal in the migration zones was measured on a Wallac Arvo 5x microplate reader (Perkin Elmer, Waltham, MA, USA).

Data set [2] relates to human lung small cell carcinoma, Lu-65. Nature of the data set: Tumor xenograft, SQAP plus X-irradiation. The settings on record: 2 mg/kg i.v. five injections plus X-irradiation 8 Gy/fraction x 2; Supplementary Fig. S1, also ref 12. The class given is in vivo, KSN nude mice. The protocol:
Cell lines and animal studies: A human lung small cell carcinoma, Lu-65, was obtained from the Cell resource Center for Biomedical Research (Sendai, Japan) and maintained in RPMI-1640 medium supplemented with 10% fetal bovine serum, 100 units/ml penicillin, 100 μg/ml streptomycin, and 1 mM sodium pyruvate at 37 °C in 5% CO2 humidified atmosphere. Viable tumor cell (1 × 106) were implanted subcutanceously into the right hind legs of male KSN nude mice (6–8 weeks old). After the tumor volume reached 50 to 100 mm3, the tumor were treated and the tumor growth was monitored by palpation. The size of the palpable tumors was measured using calipers every two days. The tumor volume (V, […]) was estimated based on the formula as follows; (minor axis)^2 × (major axis) × 0.5.
Treatments: Synthesized SQAP was prepared one day before experimentation, and dissolved in saline at the appropriate concentrations. To analyze the tumor radioresponse, 2 mg/kg SQAP (dissolved in 100 μl of saline) was administered intravenously to the ‘SQAP’ group and ‘Combination’ group (adiministered five times daily from days zero to four). The same amount of saline was injected in the ‘control’ group and ‘X-irradiation’ group. […]

For data set [3], the system named is A549 cells. Nature of the data set: WST-8 cell viability assay, A549. The class given is cell-based, human. The settings on record: A549, 46 h, SQAP 10 and 20 µM. The protocol: HUVEC and A549 cells were seeded into a 96-well culture plate (2 × 10^4 cells/well). The following day, cells were treated with SQAP or vehicle in a medium containing 1% FBS and VEGF (50 ng/mL) for 17 h (HUVEC) or fibronectin (10 μg/mL) for 46 h (A549). Cell viability was measured using Cell Count Reagent SF (Nacalai Tesque, Kyoto, Japan) following the manufacturer’s instructions. Briefly, 1/10 volume of the WST-8 solution was added to each well, and the plates were incubated at 37 °C for 1 h. Then, cell viability was determined colorimetrically by measuring OD450 using a microplate reader on a Wallac ARVO 5X microplate reader (Perkin Elmer, Waltham, MA, USA).
control SQAP 10 µM SQAP 20 µM
Livecellswere measured with SF reagent under similarconditionsas describedin thewound healing
assayinFig.5. (A)HUVEC and (B)A549 cells.
(also on this page, place not known: Cell viability (%) Cell viability (%) Live cells were similar conditions as described in the wound assay in Fig. 5. (A) HUVEC (B) A549)
Background: Tetrazolium dyes change colour on reduction, which living cells bring about.

Data set [4] has as its system HUVEC cells. Briefly: Wound healing assay, HUVEC. The format is cell-based, human. The settings on record: 11 h, 1% FBS and VEGF 50 ng/mL, control 32%. The protocol:
Figure 6 SQAP inhibits cell migration in vitro. (A) HUVEC cells were seeded and grown to 100% confluence in 60-mm diameter dishes. After generating a single scratch in the monolayer, the cells were cultured for 11 h in medium containing 1% FBS and VEGF (50 ng/mL) in the presence or absence of SQAP. Photographs were taken immediately after 11 h. (B) The change in wound width was measured as described in the Materials and Methods. (C) A549 cells were seeded and grown to 100% confluence in 60-mm diameter dishes. After generating a single scratch in the monolayer, the cells cultured for the 25 h in media containing 1% FBS and fibronectin (10 μg/ml) treated with SQAP or vehicle. Photographs were collected immediately after wounding and after 25 h. (D) The change in wound width was measured as described in the Materials and Methods. Cell migration was additionally examined in 96 well plates. HUVEC (E) and A549 cells (F) were seeded and grown into confluence overnight. After removing the stoppers, the live cells were stained with CellTracker^TM Green and incubated for the indicated time. The fluorescent emission signal was obtained with a plate reader. […]
Wound healing assay was analyzed by microscope imaging. […] Wound diameters in the images were measured and percentage of wound size was calculated as follows: [wound diameter at 11 or 25 h/wound diameter at 0 h] x 100.

As for `CCCCCCCCCCCCCCCCCC(=O)OCCCO[C@H]1O[C@H](CS(=O)(=O)O)[C@@H](O)[C@H](O)[C@H]1O` [SQAP, sulfoquynovosylacylpropanediol], in data set [1], the cell migration result is given as “arrested”. The “tumor arrest in combination with irradiation” value in data set [2] is listed as “synergistically enhanced tumor arrest”. The “cytotoxicity (WST-8 cell viability)” value in data set [3] is “noncytotoxic”. Besides, the wound size in data set [4] came out at 62%.
